Columns and labels:
Assay in all cases: relative viability (nuclei count vs DMSO), 5 days (fraction); higher = more cells survive
[1] = system: NCI-H2347
Outline: (§1)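 Lung cancer cell lines in 1536-well plates were dosed by pin tool the day after seeding, either with one drug alone or with a fixed anchor-drug dose plus five library-drug doses (not always all listed) in √10 steps. After 5 days, cells were fixed and their nuclei stained in one step (final 0.05% Triton X-100, 1% formaldehyde, 1 ug/ml Hoechst), then counted on 4× images. Relative viability is the nuclei count in treated wells divided by that in vehicle wells. Values are medians of duplicate plates.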

[2] = system: NCI-H1993
Outline: as §1

[3] = system: HCC-78
Outline: as §1

[4] = system: NCI-H2087
Outline: as §1

[5] = system: NCI-H2085
Outline: as §1

[6] = system: NCI-H727
Outline: as §1

[7] = system: LXF-289
Outline: as §1

[8] = system: NCI-H1915
Outline: as §1

[9] = system: BEN
Outline: as §1

[10] = system: HCC-366
Outline: as §1

[11] = system: NCI-H1666
Outline: as §1

[12] = system: PC-14
Outline: as §1

[13] = system: SW 900
Outline: as §1

[14] = system: EBC-1
Outline: as §1

[15] = system: NCI-H2228
Outline: as §1

[16] = system: EMC-BAC-2
Outline: as §1

[17] = system: RERF-LC-KJ
Outline: as §1

[18] = system: NCI-H358
Outline: as §1

[19] = system: NCI-H650
Outline: as §1

[20] = system: NCI-H1650
Outline: as §1

[21] = system: NCI-H2170
Outline: as §1

[22] = system: LC-2-ad
Outline: as §1

[23] = system: NCI-H1944
Outline: as §1

Nc1cccc2c1CN(C1CCC(=O)NC1=O)C2=O (configuration not stated) [Lenalidomide] + O=C(c1cc(Cc2n[nH]c(=O)c3ccccc23)ccc1F)N1CCN(C(=O)C2CC2)CC1 [Olaparib] (partner 8 µM)
relative viability ([1]; first compound 0.253 µM): 0.62
relative viability ([1]; first compound 0.8 µM): 0.567
relative viability ([1]; first compound 2.53 µM): 0.579
relative viability ([1]; first compound 8 µM): 0.509
relative viability ([2]; first compound 0.253 µM): 0.897
relative viability ([2]; first compound 0.8 µM): 1.42
relative viability ([2]; first compound 2.53 µM): 1.09
relative viability ([2]; first compound 8 µM): 0.889
relative viability ([3]; first compound 0.253 µM): 0.861
relative viability ([3]; first compound 0.8 µM): 0.858
relative viability ([3]; first compound 2.53 µM): 0.87
relative viability ([3]; first compound 8 µM): 0.814
relative viability ([4]; first compound 0.253 µM): 0.562
relative viability ([4]; first compound 2.53 µM): 0.689
relative viability ([4]; first compound 8 µM): 0.685
relative viability ([5]; first compound 0.253 µM): 0.793
relative viability ([5]; first compound 0.8 µM): 0.796
relative viability ([5]; first compound 2.53 µM): 0.841
relative viability ([5]; first compound 8 µM): 0.752
relative viability ([6]; first compound 0.253 µM): 0.732
relative viability ([6]; first compound 0.8 µM): 0.706
relative viability ([6]; first compound 2.53 µM): 0.633
relative viability ([6]; first compound 8 µM): 0.7
relative viability ([7]; first compound 0.253 µM): 1.04
relative viability ([7]; first compound 0.8 µM): 1.17
relative viability ([7]; first compound 2.53 µM): 1.24
relative viability ([7]; first compound 8 µM): 1.16
relative viability ([8]; first compound 0.253 µM): 0.265
relative viability ([8]; first compound 0.8 µM): 0.263
relative viability ([8]; first compound 2.53 µM): 0.284
relative viability ([8]; first compound 8 µM): 0.272
relative viability ([9]; first compound 0.253 µM): 1.07
relative viability ([9]; first compound 0.8 µM): 1.2
relative viability ([9]; first compound 2.53 µM): 1.08
relative viability ([9]; first compound 8 µM): 1.08
relative viability ([10]; first compound 0.253 µM): 0.328
relative viability ([10]; first compound 0.8 µM): 0.309
relative viability ([10]; first compound 2.53 µM): 0.373
relative viability ([10]; first compound 8 µM): 0.394
relative viability ([11]; first compound 0.253 µM): 0.781
relative viability ([11]; first compound 0.8 µM): 0.717
relative viability ([11]; first compound 2.53 µM): 0.776
relative viability ([11]; first compound 8 µM): 0.759
relative viability ([12]; first compound 0.253 µM): 0.302
relative viability ([12]; first compound 0.8 µM): 0.243
relative viability ([12]; first compound 2.53 µM): 0.374
relative viability ([12]; first compound 8 µM): 0.436
relative viability ([13]; first compound 2.53 µM): 0.913
relative viability ([13]; first compound 8 µM): 0.858
relative viability ([14]; first compound 0.253 µM): 0.708
relative viability ([14]; first compound 0.8 µM): 0.603
relative viability ([14]; first compound 2.53 µM): 0.823
relative viability ([14]; first compound 8 µM): 0.691
relative viability ([15]; first compound 0.253 µM): 0.544
relative viability ([15]; first compound 0.8 µM): 0.502
relative viability ([15]; first compound 2.53 µM): 0.753
relative viability ([15]; first compound 8 µM): 0.583
relative viability ([16]; first compound 0.253 µM): 0.479
relative viability ([16]; first compound 0.8 µM): 0.395
relative viability ([16]; first compound 2.53 µM): 0.52
relative viability ([16]; first compound 8 µM): 0.461
relative viability ([17]; first compound 0.253 µM): 0.812
relative viability ([17]; first compound 0.8 µM): 0.704
relative viability ([17]; first compound 2.53 µM): 0.884
relative viability ([17]; first compound 8 µM): 1.05
relative viability ([18]; first compound 0.8 µM): 0.607
relative viability ([18]; first compound 2.53 µM): 0.652
relative viability ([18]; first compound 8 µM): 0.665
relative viability ([19]; first compound 0.253 µM): 0.384
relative viability ([19]; first compound 0.8 µM): 0.294
relative viability ([19]; first compound 2.53 µM): 0.544
relative viability ([19]; first compound 8 µM): 0.369
relative viability ([20]; first compound 0.253 µM): 0.681
relative viability ([20]; first compound 0.8 µM): 0.712
relative viability ([20]; first compound 2.53 µM): 0.945
relative viability ([20]; first compound 8 µM): 0.933
relative viability ([21]; first compound 0.253 µM): 0.57
relative viability ([21]; first compound 0.8 µM): 0.611
relative viability ([21]; first compound 2.53 µM): 0.67
relative viability ([21]; first compound 8 µM): 0.553
relative viability ([22]; first compound 0.253 µM): 0.359
relative viability ([22]; first compound 0.8 µM): 0.716
relative viability ([22]; first compound 2.53 µM): 0.777
relative viability ([22]; first compound 8 µM): 0.782
relative viability ([23]; first compound 0.253 µM): 0.43
relative viability ([23]; first compound 2.53 µM): 0.443
relative viability ([23]; first compound 8 µM): 0.415

— the supplement of paper PMC10307832
